{"source": "paper PMC5218480", "about": "(PLoS ONE, 2017)", "system": "MV-4-11 cells", "experiment": "Gene expression microarray analysis (Affymetrix PrimeView) and GSEA", "format": "cell-based, human", "parameters": "RFU PODN (11730768_x_at) / Fold change /veh PODN (11730768_x_at) / RFU LINC00158 (11744669_a_at) / Fold change /veh LINC00158 (11744669_a_at) / RFU DUSP10 (11751237_a_at) / Fold change /veh DUSP10 (11751237_a_at) / RFU ID3 (11757404_x_at) / Fold change /veh ID3 (11757404_x_at) / RFU PLEKHG5 (11737974_s_at) / Fold change /veh PLEKHG5 (11737974_s_at) / RFU LRRC4B (11730491_at) / Fold change /veh LRRC4B (11730491_at) / RFU GIMAP4 (11747438_a_at) / Fold change /veh GIMAP4 (11747438_a_at) / RFU KRT8 (11758183_x_at) / Fold change /veh KRT8 (11758183_x_at) / RFU CNN1 (11734310_a_at) / Fold change /veh CNN1 (11734310_a_at) / RFU VPS37D (11726825_at) / Fold change /veh VPS37D (11726825_at) / RFU C10orf10 (11716522_x_at) / Fold change /veh C10orf10 (11716522_x_at) / RFU KIR2DL2 /// KIR2DL4 /// KIR2DL5A /// KIR2DL5B /// KIR2DS1 /// KIR2DS2 /// KIR2DS3 /// KIR2DS4 /// KIR3DL3 /// KIR3DL3 /// KIR3DS1 (11738374_at) / Fold change /veh KIR2DL2 /// KIR2DL4 /// KIR2DL5A /// KIR2DL5B /// KIR2DS1 /// KIR2DS2 /// KIR2DS3 /// KIR2DS4 /// KIR3DL3 /// KIR3DL3 /// KIR3DS1 (11738374_at) / RFU C1QL1 (11718748_at) / Fold change /veh C1QL1 (11718748_at) / RFU TMPRSS4 (11747572_a_at) / Fold change /veh TMPRSS4 (11747572_a_at) / RFU HAMP (11756126_x_at) / Fold change /veh HAMP (11756126_x_at) / RFU RNFT2 (11725882_a_at) / Fold change /veh RNFT2 (11725882_a_at) / RFU NR4A2 (11747474_a_at) / Fold change /veh NR4A2 (11747474_a_at) / RFU ABCC12 (11746883_a_at) / Fold change /veh ABCC12 (11746883_a_at) / RFU TMEM136 (11760407_x_at) / Fold change /veh TMEM136 (11760407_x_at) / RFU CLDN22 /// WWC2 (11732394_at) / Fold change /veh CLDN22 /// WWC2 (11732394_at) / RFU HLA-DPB1 (11760878_x_at) / Fold change /veh HLA-DPB1 (11760878_x_at) / RFU SPINT1 (11716480_a_at) / Fold change /veh SPINT1 (11716480_a_at) / RFU GAP43 (11754022_s_at) / Fold change /veh GAP43 (11754022_s_at) / RFU A4GNT (11735810_at) / Fold change /veh A4GNT (11735810_at) / RFU PRB3 (11715151_x_at) / Fold change /veh PRB3 (11715151_x_at) / RFU TUBB4B (11761932_at) / Fold change /veh TUBB4B (11761932_at) / RFU CAPN14 (11732068_a_at) / Fold change /veh CAPN14 (11732068_a_at) / RFU TMCC2 (11721928_a_at) / Fold change /veh TMCC2 (11721928_a_at) / RFU IRGQ (11745062_a_at) / Fold change /veh IRGQ (11745062_a_at) / RFU FAM174B (11720279_a_at) / Fold change /veh FAM174B (11720279_a_at) / RFU TMPRSS4 (11748680_a_at) / Fold change /veh TMPRSS4 (11748680_a_at) / RFU FAM212B (11763350_a_at) / Fold change /veh FAM212B (11763350_a_at) / RFU PLEKHG5 (11743358_a_at) / Fold change /veh PLEKHG5 (11743358_a_at) / RFU ZSCAN30 (11745921_a_at) / Fold change /veh ZSCAN30 (11745921_a_at) / RFU CMKLR1 (11741424_a_at) / Fold change /veh CMKLR1 (11741424_a_at) / RFU LOC101060620 /// MAPK8IP1 (11723275_at) / Fold change /veh LOC101060620 /// MAPK8IP1 (11723275_at) / RFU SPTSSB (11747773_x_at) / Fold change /veh SPTSSB (11747773_x_at) / RFU PRSS12 (11739890_at) / Fold change /veh PRSS12 (11739890_at) / RFU BIN1 (11741810_x_at) / Fold change /veh BIN1 (11741810_x_at) / RFU WNT11 (11732464_a_at) / Fold change /veh WNT11 (11732464_a_at) / RFU C10orf10 (11716521_a_at) / Fold change /veh C10orf10 (11716521_a_at) / RFU C5orf56 (11738089_at) / Fold change /veh C5orf56 (11738089_at) / RFU CYB561 (11721691_x_at) / Fold change /veh CYB561 (11721691_x_at) / RFU ANKRD19P (11752326_a_at) / Fold change /veh ANKRD19P (11752326_a_at) / RFU OR2T12 /// OR2T33 /// OR2T8 (11738714_s_at) / Fold change /veh OR2T12 /// OR2T33 /// OR2T8 (11738714_s_at) / RFU VCAN (11748164_a_at) / Fold change /veh VCAN (11748164_a_at) / RFU JSRP1 (11732532_at) / Fold change /veh JSRP1 (11732532_at) / RFU KRTAP10-11 (11738290_x_at) / Fold change /veh KRTAP10-11 (11738290_x_at) / RFU MYO3A (11730013_a_at) / Fold change /veh MYO3A (11730013_a_at) / RFU EBF3 (11725865_a_at) / Fold change /veh EBF3 (11725865_a_at) / RFU CAMK2N1 (11719241_x_at) / Fold change /veh CAMK2N1 (11719241_x_at) / RFU C5orf56 (11738088_a_at) / Fold change /veh C5orf56 (11738088_a_at) / RFU OLFML3 (11715873_a_at) / Fold change /veh OLFML3 (11715873_a_at) / RFU LOC100653217 /// NTM (11731650_a_at) / Fold change /veh LOC100653217 /// NTM (11731650_a_at) / RFU MAPK11 (11762145_a_at) / Fold change /veh MAPK11 (11762145_a_at) / RFU FIZ1 (11724087_x_at) / Fold change /veh FIZ1 (11724087_x_at) / RFU OASL (11726364_x_at) / Fold change /veh OASL (11726364_x_at) / RFU SOX15 (11748057_x_at) / Fold change /veh SOX15 (11748057_x_at) / RFU CD79A (11719716_a_at) / Fold change /veh CD79A (11719716_a_at) / RFU HIST1H1D (11736915_at) / Fold change /veh HIST1H1D (11736915_at) / RFU CASKIN2 (11723855_a_at) / Fold change /veh CASKIN2 (11723855_a_at) / RFU LOC730098 (11760151_x_at) / Fold change /veh LOC730098 (11760151_x_at) / RFU OR4N2 (11742367_at) / Fold change /veh OR4N2 (11742367_at) / RFU PRRT2 (11749266_a_at) / Fold change /veh PRRT2 (11749266_a_at) / RFU SNX32 (11753110_a_at) / Fold change /veh SNX32 (11753110_a_at) / RFU CDHR5 (11726645_a_at) / Fold change /veh CDHR5 (11726645_a_at) / RFU RCAN1 (11760418_a_at) / Fold change /veh RCAN1 (11760418_a_at) / RFU FAM167A (11723789_a_at) / Fold change /veh FAM167A (11723789_a_at) / RFU FAM26E (11764081_at) / Fold change /veh FAM26E (11764081_at) / RFU ISYNA1 (11749810_s_at) / Fold change /veh ISYNA1 (11749810_s_at) / RFU ACY1 (11761880_at) / Fold change /veh ACY1 (11761880_at) / RFU 11764098_at / Fold change /veh 11764098_at / RFU SAMD14 (11745864_x_at) / Fold change /veh SAMD14 (11745864_x_at) / RFU NPB (11741838_a_at) / Fold change /veh NPB (11741838_a_at) / RFU TMPRSS6 (11731388_a_at) / Fold change /veh TMPRSS6 (11731388_a_at) / RFU KRTAP10-2 (11738614_at) / Fold change /veh KRTAP10-2 (11738614_at) / RFU ARHGAP8 /// PRR5-ARHGAP8 (11727945_x_at) / Fold change /veh ARHGAP8 /// PRR5-ARHGAP8 (11727945_x_at) / RFU KRTAP5-7 /// NADSYN1 (11734609_at) / Fold change /veh KRTAP5-7 /// NADSYN1 (11734609_at) / RFU RASL12 (11751679_a_at) / Fold change /veh RASL12 (11751679_a_at) / RFU CDKN2B (11736163_a_at) / Fold change /veh CDKN2B (11736163_a_at) / RFU PRF1 (11729649_at) / Fold change /veh PRF1 (11729649_at) / RFU, ZNF638 /// ZNF638-IT1 / Fold change vs veh, ZNF638 /// ZNF638-IT1 / RFU, PANK3 / Fold change vs veh, PANK3 / RFU, SH3YL1 / Fold change vs veh, SH3YL1 / RFU, ZEB2 / Fold change vs veh, ZEB2 / RFU, NRIP1 / Fold change vs veh, NRIP1 / RFU, PTTG1IP / Fold change vs veh, PTTG1IP / RFU, CAPN2 / Fold change vs veh, CAPN2 / RFU, MED14 / Fold change vs veh, MED14 / RFU, SNORA58 / Fold change vs veh, SNORA58 / RFU, C1orf63 / Fold change vs veh, C1orf63 / RFU, LRRFIP1 / Fold change vs veh, LRRFIP1 / RFU, NDUFAF7 / Fold change vs veh, NDUFAF7 / RFU, SLC12A2 / Fold change vs veh, SLC12A2 / RFU, IBTK / Fold change vs veh, IBTK / RFU, ESF1 / Fold change vs veh, ESF1 / Fold change vs veh, TMEM50B / RFU, TAOK1 / Fold change vs veh, TAOK1 / RFU, ACBD3 / Fold change vs veh, ACBD3 / RFU, TMA16 / Fold change vs veh, TMA16 / RFU, RWDD3 / Fold change vs veh, RWDD3 / RFU, BCAT1 / Fold change vs veh, BCAT1 / RFU, EDEM3 / Fold change vs veh, EDEM3 / RFU, TMEM33 / Fold change vs veh, TMEM33 / RFU, WDR75 / Fold change vs veh, WDR75 / RFU, AHCTF1 / Fold change vs veh, AHCTF1 / RFU, TFRC / Fold change vs veh, TFRC / RFU, ZDHHC17 / Fold change vs veh, ZDHHC17 / RFU, NOM1 / Fold change vs veh, NOM1 / RFU, ARL8B / Fold change vs veh, ARL8B / RFU, ZBTB11 / Fold change vs veh, ZBTB11 / RFU, TAMM41 / Fold change vs veh, TAMM41 / RFU, KIAA1704 /// LOC100996395 / Fold change vs veh, KIAA1704 /// LOC100996395 / RFU, ING1 / Fold change vs veh, ING1 / RFU, TRMT61B / Fold change vs veh, TRMT61B / RFU, FUBP3 / Fold change vs veh, FUBP3 / RFU, TP53 / Fold change vs veh, TP53 / RFU, TNKS2 / Fold change vs veh, TNKS2 / RFU, ZFP14 / Fold change vs veh, ZFP14 / RFU, ACTR2 / Fold change vs veh, ACTR2 / RFU, PPP3R1 / Fold change vs veh, PPP3R1 / RFU, PIK3R1 / Fold change vs veh, PIK3R1 / RFU, HNRNPA1 / Fold change vs veh, HNRNPA1 / RFU, RNF170 / Fold change vs veh, RNF170 / RFU, ZNF28 / Fold change vs veh, ZNF28 / RFU, RNGTT / Fold change vs veh, RNGTT / RFU, OGT / Fold change vs veh, OGT / RFU, BRD1 / Fold change vs veh, BRD1 / RFU, MARS / Fold change vs veh, MARS / RFU, ZNF655 / Fold change vs veh, ZNF655 / RFU, FAHD1 / Fold change vs veh, FAHD1 / RFU, BDP1 / Fold change vs veh, BDP1 / RFU, LRRCC1 / Fold change vs veh, LRRCC1 / RFU, ARID1A / Fold change vs veh, ARID1A / RFU, ZNF146 / Fold change vs veh, ZNF146 / RFU, ZNF330 / Fold change vs veh, ZNF330 / RFU, GPN3 / Fold change vs veh, GPN3 / RFU, C9orf123 / Fold change vs veh, C9orf123 / RFU, N4BP2L2 / Fold change vs veh, N4BP2L2 / RFU, ARFIP1 / Fold change vs veh, ARFIP1 / RFU, FAM179B / Fold change vs veh, FAM179B / RFU, BCL10 / Fold change vs veh, BCL10 / RFU, UHRF1BP1L / Fold change vs veh, UHRF1BP1L / RFU, BET1 / Fold change vs veh, BET1 / RFU, CNOT2 / Fold change vs veh, CNOT2 / RFU, ZNF268 / Fold change vs veh, ZNF268 / Fold change vs veh, ZNF507 / RFU, DGCR2 / Fold change vs veh, DGCR2 / RFU, WDSUB1 / Fold change vs veh, WDSUB1 / Fold change vs veh, HSP90B1 /// MIR3652 / RFU, ADSS / Fold change vs veh, ADSS / RFU, GK / Fold change vs veh, GK / RFU, ZNF148 / Fold change vs veh, ZNF148 / RFU, TAF9 / Fold change vs veh, TAF9 / RFU, SLC1A5 / Fold change vs veh, SLC1A5 / RFU, SLMO2 / Fold change vs veh, SLMO2 / RFU, ABCC4 / Fold change vs veh, ABCC4 / RFU, LOC101060439 /// RAP1B / Fold change vs veh, LOC101060439 /// RAP1B / RFU, RFX7 / Fold change vs veh, RFX7 / RFU, GTPBP10 / Fold change vs veh, GTPBP10 / RFU, CNEP1R1 / Fold change vs veh, CNEP1R1 / RFU, BIVM-ERCC5 /// ERCC5 / Fold change vs veh, BIVM-ERCC5 /// ERCC5 / RFU, ILF3 / Fold change vs veh, ILF3 / RFU 11762660_at / Fold change /veh 11762660_at / RFU VCAN (11757783_s_at) / Fold change /veh VCAN (11757783_s_at) / RFU DDX43 (11728927_at) / Fold change /veh DDX43 (11728927_at) / RFU KRT8 (11758188_x_at) / Fold change /veh KRT8 (11758188_x_at) / RFU NKD1 (11759106_at) / Fold change /veh NKD1 (11759106_at) / RFU SRD5A1 (11742802_a_at) / Fold change /veh SRD5A1 (11742802_a_at) / RFU TPSAB1 /// TPSB2 (11721975_s_at) / Fold change /veh TPSAB1 /// TPSB2 (11721975_s_at) / RFU GSTM3 (11746129_a_at) / Fold change /veh GSTM3 (11746129_a_at) / RFU IL23R (11737362_x_at) / Fold change /veh IL23R (11737362_x_at) / RFU TMEM51 (11727254_a_at) / Fold change /veh TMEM51 (11727254_a_at) / RFU PIWIL2 (11732686_x_at) / Fold change /veh PIWIL2 (11732686_x_at) / RFU ORM1 (11744905_x_at) / Fold change /veh ORM1 (11744905_x_at) / RFU CCDC152 (11743942_at) / Fold change /veh CCDC152 (11743942_at) / RFU ECM1 (11717891_a_at) / Fold change /veh ECM1 (11717891_a_at) / RFU IL23R (11748794_a_at) / Fold change /veh IL23R (11748794_a_at) / RFU TNFAIP8L3 (11732012_x_at) / Fold change /veh TNFAIP8L3 (11732012_x_at) / RFU MBOAT4 (11741988_at) / Fold change /veh MBOAT4 (11741988_at) / RFU 11764193_at / Fold change /veh 11764193_at / RFU TMEM53 (11763286_at) / Fold change /veh TMEM53 (11763286_at) / RFU MAGEB2 (11727129_at) / Fold change /veh MAGEB2 (11727129_at) / RFU TMEM200A (11744735_a_at) / Fold change /veh TMEM200A (11744735_a_at) / RFU CCDC152 (11751479_a_at) / Fold change /veh CCDC152 (11751479_a_at) / RFU FAM211A (11726209_a_at) / Fold change /veh FAM211A (11726209_a_at) / RFU RGS16 (11746705_a_at) / Fold change /veh RGS16 (11746705_a_at) / RFU VCAN (11755009_s_at) / Fold change /veh VCAN (11755009_s_at) / RFU RHOB (11743442_s_at) / Fold change /veh RHOB (11743442_s_at) / RFU RGS16 (11720943_a_at) / Fold change /veh RGS16 (11720943_a_at) / RFU RGS16 (11720944_at) / Fold change /veh RGS16 (11720944_at) / RFU, VPS4B / Fold change vs veh, VPS4B / RFU, CREB1 / Fold change vs veh, CREB1 / RFU, DNAJC13 / Fold change vs veh, DNAJC13 / RFU, GNAQ / Fold change vs veh, GNAQ / RFU, CDK5R1 / Fold change vs veh, CDK5R1 / RFU, ZRANB3 / Fold change vs veh, ZRANB3 / RFU, CUL4A / Fold change vs veh, CUL4A / RFU, CCNY / Fold change vs veh, CCNY / RFU, UFL1 / Fold change vs veh, UFL1 / RFU, COG3 / Fold change vs veh, COG3 / RFU, DIAPH2 / Fold change vs veh, DIAPH2 / RFU, SKA2 / Fold change vs veh, SKA2 / RFU, AFF3 / Fold change vs veh, AFF3 / RFU, LMF1 / Fold change vs veh, LMF1 / RFU, IPO11 / Fold change vs veh, IPO11 / RFU, DFFB / Fold change vs veh, DFFB / RFU, FOXP1 / Fold change vs veh, FOXP1 / RFU, CARD8 / Fold change vs veh, CARD8 / RFU, STRN3 / Fold change vs veh, STRN3 / RFU, ADK / Fold change vs veh, ADK / RFU, RASSF2 / Fold change vs veh, RASSF2 / RFU, WIPF1 / Fold change vs veh, WIPF1 / RFU, LARP1B / Fold change vs veh, LARP1B / RFU, RASA1 / Fold change vs veh, RASA1 / RFU, RB1 / Fold change vs veh, RB1 / RFU, PPFIA1 / Fold change vs veh, PPFIA1 / RFU, MAT2A / Fold change vs veh, MAT2A / RFU, CCT5 / Fold change vs veh, CCT5 / RFU, WDR92 / Fold change vs veh, WDR92 / RFU, CUX1 / Fold change vs veh, CUX1 / RFU, TTC7A / Fold change vs veh, TTC7A / RFU, TMEM135 / Fold change vs veh, TMEM135 / RFU, DEPTOR / Fold change vs veh, DEPTOR / RFU, CPM / Fold change vs veh, CPM / RFU, DNAJB6 / Fold change vs veh, DNAJB6 / RFU, CACNA2D3 / Fold change vs veh, CACNA2D3 / RFU, DTX4 / Fold change vs veh, DTX4 / RFU, TFCP2 / Fold change vs veh, TFCP2 / RFU, GMCL1 /// GMCL1P1 / Fold change vs veh, GMCL1 /// GMCL1P1 / RFU, AEBP2 / Fold change vs veh, AEBP2 / RFU, SNHG1 /// SNORD22 /// SNORD25 /// SNORD26 /// SNORD27 /// SNORD28 /// SNORD29 /// SNORD31 / Fold change vs veh, SNHG1 /// SNORD22 /// SNORD25 /// SNORD26 /// SNORD27 /// SNORD28 /// SNORD29 /// SNORD31 / Fold change (Aza/veh), C12orf56 (ProbeSet 11735607_a_at) / Fold change (ACY-1035/veh), C12orf56 (ProbeSet 11735607_a_at) / Fold change (Aza/veh), FGFR1OP (ProbeSet 11751329_s_at) / Fold change (ACY-1035/veh), FGFR1OP (ProbeSet 11751329_s_at) / Fold change (Aza/veh), VPS36 (ProbeSet 11739960_a_at) / Fold change (ACY-1035/veh), VPS36 (ProbeSet 11739960_a_at) / RFU SYPL1 (11715823_x_at) / Fold change /veh SYPL1 (11715823_x_at) / RFU IGFBP7 (11715501_s_at) / Fold change /veh IGFBP7 (11715501_s_at) / RFU REEP3 (11722064_at) / Fold change /veh REEP3 (11722064_at) / RFU IGLL1 (11728026_x_at) / Fold change /veh IGLL1 (11728026_x_at): dose or concentration left out as unconfirmed", "conditions": "ProbeSet 11753055_s_at; LIST B"}
{"compound": "Nc1ncn([C@@H]2O[C@H](CO)[C@@H](O)[C@H]2O)c(=O)n1", "note": "[azacitidine]", "values": [{"measurement": "Fold change vs veh, LOC101060439 /// RAP1B", "value": 0.86}]}
